According to paper PMC8291587, “Guanidine Derivatives: How Simple Structural Modification of Histamine H3R Antagonists Has Led to the Discovery of Potent Muscarinic M2R/M4R Antagonists” (ACS Chemical Neuroscience, 2021):
Several values for one entry are separate records, joined by “and”; a condition that tells them apart may be missing. Identical values can stand only once. Like-named read-outs stand apart in the source and are kept apart here.

What was measured:
M2R/M3R = assay: Ex vivo screening of muscarinic M2R/M3R antagonists on isolated guinea pig ileum (methacholine-induced contraction); details: methacholine as agonist
Experimental: Another group of guinea pig intestinal receptors able to regulate smooth muscle contraction is that of the muscarinic receptors, including M2R and M3R. All compounds were tested on the muscarinic receptors using the same animal model. This approach is similar to measuring histamine H1R antagonist activity. Methacholine was used as a receptor agonist, while 1,1-dimethyl-4-diphenylacetoxypiperidinium iodide (4-DAMP) was used as a reference M3R antagonist. As methacholine is not selective according to M2R and M3R, it is not possible to precisely specify which one was responsible for the effect observed on the tissue preparations. Some authors often attribute the results to the minor M3R subtype (gpM2R:M3R = 4:1 or 5:1), which is generally associated with the contractions,[38] but such an overinterpretation may be misleading, as indicated by our further hM1R-hM5R radioligand binding assay results shown in Table 2. […] These findings partially explain the influence of ADS10227 on the contractility of guinea pig ileum following electrical stimulation. […] In subsequent studies, we tried to clarify this.
Male guinea pigs, weighing 300–400 g, were euthanized by a blow to the neck. A 20–30 cm length of the distal ileum, apart from the terminal 5 cm, was rapidly removed and placed in phosphate buffer at room temperature (pH 7.4) containing (mM) NaCl (136.9), KCl (2.6), KH2PO4 (1.47), Na2HPO4 (9.58), and indomethacin (1 × 10^–6 mol/L)). The intraluminal content was rinsed, and the isolated intestine was cut into 1.5–2 cm segments. The preparations were mounted isotonically in a 20 mL organ bath filled with Tyrode’s buffer: composition (mM) NaCl (137), KCl (2.7), MgCl2·6H2O (1.0), CaCl2 (1.8), NaH2PO4·H2O (0.4), NaHCO3 (11.9), glucose (5.61), and indomethacin (3 × 10^–7 mol/L). The solution was continuously bubbled with a 95% O2:5% CO2 mixture and maintained at 37 °C under a constant load of 0.5 g (Hugo Sachs Hebel–Messvorsatz (Tl-2)/HF-modem; Hugo Sachs Elektronik, Hugstetten, Germany) connected to a pen recorder (Kipp & Zonen BD41, Delft, Holland). During an equilibration period of 40 min, Tyrode’s buffer was changed every 10 min. The first cumulative concentration–response curve was determined for methacholine (10 nM to 3 mM) at increasing concentrations spaced by 3- or 3.3-fold. The second to the fourth (or fifth) curves were measured in the presence of an increasing concentration of antagonist (incubation time 20 min). The pA2 values were calculated according to Arunlakshana and Schild.[37] Statistical analysis was carried out with the Students’ t test. In all tests, a p < 0.05 was considered statistically significant.

H1R = target: T1, H1R (Cavia porcellus, UniProt P31389); assay: Ex vivo screening of histamine H1R antagonists on guinea pig ileum, variant without atropine; details: isolated guinea pig ileum, histamine as agonist
T1 construct: from tissue; host or cells: isolated distal ileum of male guinea pigs
Experimental: The second histamine receptor located in the guinea pig ileum is H1R. […] The H1R antagonistic effect was measured on isolated guinea pig ileum stimulated to contract by histamine.[37] To assess and exclude the influence of the ADS compounds on muscarinic receptors, two test variations were used: one with the addition of 0.05 μM atropine and one without.
Male guinea pigs, weighing 300–400 g, were euthanized by a blow to the neck. A 20–30 cm length of the distal ileum, apart from the terminal 5 cm, was rapidly removed and placed in phosphate buffer at room temperature (pH 7.4) containing (mM) NaCl (136.9), KCl (2.6), KH2PO4 (1.47), Na2HPO4 (9.58), and indomethacin (1 × 10^–6 mol/L). The intraluminal content was rinsed, and the isolated intestine was cut into 1.5–2 cm segments. The preparations were mounted isotonically in a 20 mL organ bath filled with Krebs buffer: composition (mM) NaCl (118), KCl (5.6), MgSO4 (1.18), CaCl2 (2.5), NaH2PO4·H2O (1.28), NaHCO3 (25), glucose (5.55), and indomethacin (3 × 10^–7 mol/L). […] The solution was continuously bubbled with a 95% O2:5% CO2 mixture and maintained at 37 °C under a constant load of 0.5 g (Hugo Sachs Hebel–Messvorsatz (Tl-2)/HF-modem; Hugo Sachs Elektronik, Hugstetten, Germany) connected to a pen recorder (Kipp & Zonen BD41, Delft, Holland). During an equilibration period of 40 min, Krebs buffer was changed every 10 min. The first cumulative concentration–response curve was determined for histamine (10 nM to 10 mM) at increasing concentrations spaced by 3- or 3.3-fold. The second to the fourth (or fifth) curves were measured in the presence of an increasing concentrations of antagonist (incubation time 10 min). The pA2 values were calculated according to Arunlakshana and Schild.[37] Statistical analysis was carried out with the Students’ t test. In all tests, a p < 0.05 was considered statistically significant.

[1] = read-out: H1R pA2 gpi ± sem (converted)

T1 sequence (P31389 whole entry): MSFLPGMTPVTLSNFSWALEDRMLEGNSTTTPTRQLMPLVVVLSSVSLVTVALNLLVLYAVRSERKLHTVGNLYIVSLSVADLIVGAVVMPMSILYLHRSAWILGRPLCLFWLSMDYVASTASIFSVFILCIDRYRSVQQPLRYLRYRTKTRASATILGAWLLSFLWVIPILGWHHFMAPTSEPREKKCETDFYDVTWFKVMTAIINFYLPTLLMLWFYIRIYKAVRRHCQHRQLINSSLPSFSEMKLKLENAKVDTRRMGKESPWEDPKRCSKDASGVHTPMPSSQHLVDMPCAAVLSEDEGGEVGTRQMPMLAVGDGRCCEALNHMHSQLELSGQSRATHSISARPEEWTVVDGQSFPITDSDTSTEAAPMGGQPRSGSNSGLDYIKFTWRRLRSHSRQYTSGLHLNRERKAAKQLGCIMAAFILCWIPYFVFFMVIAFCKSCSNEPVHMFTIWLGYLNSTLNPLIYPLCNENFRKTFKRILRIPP

Row | Structure (SMILES) | M2R/M3R pA2 gpi ± sem (M2R/M3R) | Kb (H1R; H1R pA2 gpi ± sem) [nM] | Kb (H1R; [1]) [nM]
1 | N=C(N)N(CCCCN1CCN(CCCCCCCOc2ccccc2)CC1)Cc1ccccc1 [ADS1017] | 6.36 and 6.36 ±0.10 | 331 | –
2 | N=C(N)N(CCCCN1CCN(C[C@H]2CC[C@@H](COc3ccccc3)CC2)CC1)Cc1ccccc1 [ADS10227, 1-{4-{4-{[4-(phenoxymethyl)cyclohexyl]methyl}piperazin-1-yl}but-1-yl}-1-(benzyl)guanidine] | 6.97±0.09 | – | 70.8
3 | [H]/N=C(/N)N(CCCCN1CCN(CC2CCC(COc3ccccc3)CC2)CC1)Cc1ccc(C(F)(F)F)cc1 (stereo not drawn) [ADS10239] | 6.46±0.11 | – | 110
